Patent US4163785A, “Benzothiazepine compounds and compositions” (Hexachimie, priority 1978, dated 1979)

Tests used:
[1] = system: passive cutaneous anaphylaxis reaction; experiment: Passive cutaneous anaphylaxis reaction; type: in vivo, rat; details: for % inhibition: reduction of coloured surface; for ED50: Rattus norvegicus
Method: The method used is that described by MOTA I in "Immunology" 1964, 7, Page 681. This method consists of sensitizing rats by 4 intradermal injections of 0.1 ml rat antiserum. The antiserum is obtained from animals treated with a mixture of ovalbumin and bordetella pertussis. 72 hours after sensitization, the product to be studied and 1 ml per rat (IV) of a 0.25% solution of Evans blue+5 mg/ml ovalbumin in an isotonic aqueous solution of […] sodium chloride are administered to the animals intravenously or intraperitoneally. Thirty minutes after this last injection, the animals are killed and one measures the surface area of each bruise corresponding to the point of injection of the antiserum. The results are expressed as a percentage reduction of the coloured surface. The results are given in Table III hereafter in which the results obtained with disodium cromoglycate (used intravenously) are also shown by way of comparison.

[2] = system: histamine; experiment: Histamine bronchoconstrictor aerosol (antihistamine activity); type: in vivo, guinea pig; details: for % protection: animals without apneic crisis within 5 minutes
Method: Batches of 6 guinea pigs weighing from 200 to 250 g are exposed to an aerosol of 0.2% histamine in an aqueous solution, in a small chamber for 5 minutes. Two aerosols are used at an interval of 4 hours. The product tested is administered intraperitoneally 30 minutes before the use of the second aerosol.

[3] = system: histamine; experiment: Action with regard to a LD100 of histamine (protection from mortality); type: in vivo, guinea pig; details: for % protection: mortality caused by histamine, 1 hour
Method: Male tricolour guinea pigs weighing 400 to 500 g receive the product studied intraperitoneally. 30 minutes later, 800 γ/kg histamine, or the LD 100 in physiological solution are injected intraveinously.
The animals are kept under observation for 1 hour.

Compound: O=C(O)c1cc(=O)c2c(OCC(O)COc3cccc4oc(C(=O)O)cc(=O)c34)cccc2o1 [Disodium cromoglycate, disodium cromoglycate]
- Mean Surface area ([1]; IV, 0.15 mg/kg, control 31.77 ± 3.16): 27.86 ± 3.82 mm^2
- % inhibition ([1]; IV, 0.15 mg/kg, T ns): 12%
- Mean Surface area ([1]; IV, 0.31 mg/kg, control 31.77 ± 3.16): 30.5 ± 2.59 mm^2
- % inhibition ([1]; IV, 0.31 mg/kg, T ns): 4%
- Mean Surface area ([1]; IV, 0.625 mg/kg, control 72.46 ± 4.37): 35.42 ± 5.02 mm^2
- % inhibition ([1]; IV, 0.625 mg/kg, T ***): 51%
- Mean Surface area ([1]; IV, 1.25 mg/kg, control 31.77 ± 3.16): 2.30 ± 1.07 mm^2
- % inhibition ([1]; IV, 1.25 mg/kg, T ***): 93%
- Mean Surface area ([1]; IV, 2.5 mg/kg, control 31.77 ± 3.16): 0.23 ± 0.23 mm^2
- % inhibition ([1]; IV, 2.5 mg/kg, T ***): 99%
- ED50 ([1]; iv): 0.64 mg/kg

Compound: CN1CCN(C2=Nc3ccccc3Sc3ncccc32)CC1 [Example 2, 5-(1'-methyl-4'-piperazinyl)pyrido[2,3-b][1,5]benzothiazepine]
- % protection ([2]; 0.062 mg/kg intraperitoneally): 17%
- % protection ([2]; 0.125 mg/kg intraperitoneally): 33%
- % protection ([2]; 0.250 mg/kg intraperitoneally): 50%
- % protection ([2]; 0.500 mg/kg intraperitoneally): 100%
- ED50 ([2]; Cavia porcellus, ip, intraperitoneally, 0.2% histamine aerosol): 0.155 mg/kg
- % protection ([3]; 0.062 mg/kg intraperitoneally): 0%
- % protection ([3]; 0.125 mg/kg intraperitoneally): 60%
- % protection ([3]; 0.250 mg/kg intraperitoneally): 100%
- ED50 ([3]; Cavia porcellus, ip, intraperitoneally, 800 γ/kg histamine (LD 100) intravenously): 0.12 mg/kg
- Mean Surface area ([1]; I.P., 0.125 mg/kg, control 66.7 ± 2.62): 54.4 ± 3.26 mm^2
- % inhibition ([1]; I.P., 0.125 mg/kg, T **): 18%
- Mean Surface area ([1]; I.P., 0.5 mg/kg, control 90.8 ± 5.92): 46.3 ± 3.78 mm^2
- % inhibition ([1]; I.P., 0.5 mg/kg, T ***): 49%
- Mean Surface area ([1]; I.P., 1 mg/kg, control 66.7 ± 2.62): 25.1 ± 3.45 mm^2
- % inhibition ([1]; I.P., 1 mg/kg, T ***): 62%
- ED50 ([1]; ip, I.P.): 0.57 mg/kg
